Among the data in patent publication US6288091A, “Antiherpes virus compounds and methods for their preparation and use” (Boehringer Ingelheim Ltd., priority 1999, dated 2001) are IC50 and EC50 values, retold here.

Read-outs that look alike come from different tables or passages of the source.

One assay has as its target T1, HSV-1 helicase-primase (Human herpesvirus 1, UniProt P10189+P10236).
T1 construct: made in house; host or cells: Sf21 insect cells triply infected with recombinant baculoviruses (UL5, UL8, UL52)
Put plainly: HSV-1 DNA-dependent ATPase assay (inhibition of HSV-1 helicase-primase). It is filed as biochemical. A digest of the protocol: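 ATP hydrolysis was measured as inorganic phosphate (malachite green/molybdate, 650 nm) after 20 min at 34°. Reaction: 3 μg/mL purified Sf21-expressed UL5/UL8/UL52 helicase-primase, 25 μM single-stranded M13 DNA hybridized to 68-mer, 4 mM ATP, pH 7.5 HEPES buffer, 3.3% DMSO. Net absorbance change with and without inhibitor gave DNA-dependent ATPase activity.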

A further assay concerns HSV-1 strain F or KOS. Put plainly: Inhibition of herpes simplex virus (HSV-1) replication in cell culture (BHK-21 cells, glycoprotein C ELISA). It is filed as cell-based. A digest of the protocol: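 Replication readout: ELISA for HSV-1 late glycoprotein C (mAb C11, peroxidase-OPD, 450 nm) on glutaraldehyde-fixed cells. Monolayers (~50,000 cells/well) were infected with strain F or KOS (MOI 0.05 PFU/cell), then incubated 24 h at 37° with compound in 2% FBS α-MEM. EC50 derived from % inhibition.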
In general terms: In an ELISA, binding on a coated surface is turned into a signal by an enzyme label.

The test system of the next assay is HCMV (strain AD169). Briefly: Inhibition of HCMV replication, ELISA assay (Hs-68 cells). It is filed as cell-based, Human Cytomegalovirus (HCMV). As to conditions: read-out: ELISA CMV EC50. The method, then: C) Inhibition of Human Cytomegalovirus (HCMV) Replication
The effect of compounds on the replication of HCMV has been measured by using an ELISA-based assay (ELISA) and a plaque reduction assay (PRA).
Hs-68 cells (ATCC # CRL 1635) were seeded in 96 well microtiter plates at 10,000 cells/well in 100 μL of DMEM medium (Gibco Canada Inc.) supplemented with 10% fetal bovine serum (FBS, Gibco Canada Inc.). The plates were incubated for 3 days at 37° to allow the cells to reach 80-90% confluency prior to the assay.
The medium was removed from wells by aspiration. The cells then were infected at a multiplicity of infection (MOI) of 0.01 PFU/cell with 50 μL of HCMV (strain AD169, ATCC VR-538) in DMEM medium supplemented with 5% heat inactivated FBS (assay medium). The virus was allowed to adsorb to cells for 2 h at 37°. Following viral adsorption, the medium was removed from the wells by aspiration. The cells were washed twice with 200 μL of assay medium to remove unabsorbed virus. The cells were then incubated with or without 100 μL of appropriate concentrations of test reagent in assay medium. After 8 days of incubation at 37°, the extent of viral replication was determined by an ELISA assay which detects the late structural protein p28 of HCMV.
Eight days after infection, the medium was aspirated from the wells. Non-specific binding sites were blocked by adding 200 μL of phosphate buffered saline containing 1% (w/v) bovine serum albumin (blocking buffer) to each well and incubating the plates for 30 min at room temperature. After removal of the blocking buffer by aspiration, the cells were fixed with 100 μL of cold ethanol-acetone solution (95:5) per well. The plates were placed at -20° for 30 min. The plates were washed 4 times with phosphate buffered saline containing 0.05% (v/v) polyoxyethylene sorbitan monolaurate (Tween®). Thereafter, 100 μL of mAb UL99 (Advanced Biotechnologies Inc., #13-130-100) recognizing HCMV protein p28 was added to each wells and plates were incubated for 2 h at room temperature. The plates were washed four times with 200 μL of the above-noted phosphate buffered saline/Tween-20® solution. The cells were then incubated with 100 μL of sheep anti-mouse IgGγ horseradish peroxidase conjugated for 2 h at room temperature. The plates were then washed four times with 200 μL of above-noted phosphate buffered saline/Tween-20® solution. Thereafter, 100 μL of ortho phenylenediamine dihydrochloride (OPD, Gibco Canada Inc.) solution was added to each well and the plates were agitated on a microplate shaker for 30 min in the dark. Color development was monitored at 450 nm using a microplate spectrophotometer.
The SAS program was used to calculate the % inhibition of viral replication and to generate EC50 values.
The EC50 values obtained according to this assay method for certain thiazolylphenyl derivatives of this invention are listed in the following tables under the heading ELISA CMV.

The mark [1] stands for this setting: Human alphaherpesvirus 1, BHK-21, Group 1 Table 1 entries.
The mark [2] stands for this setting: Human betaherpesvirus 5, AD169, Hs68, Group 1 Table 1 entries.
Setting [3] is: Human alphaherpesvirus 1, BHK-21, Group 1 Table 5 entries.
[4] abbreviates: Human betaherpesvirus 5, AD169, Hs68, Group 1 Table 5 entries.
Where [5] appears, read: Human alphaherpesvirus 1, BHK-21, Group 1 Table 3 entries.
Where [6] appears, read: Human betaherpesvirus 5, AD169, Hs68, Group 1 Table 3 entries.

T1 sequence (P10192 whole entry): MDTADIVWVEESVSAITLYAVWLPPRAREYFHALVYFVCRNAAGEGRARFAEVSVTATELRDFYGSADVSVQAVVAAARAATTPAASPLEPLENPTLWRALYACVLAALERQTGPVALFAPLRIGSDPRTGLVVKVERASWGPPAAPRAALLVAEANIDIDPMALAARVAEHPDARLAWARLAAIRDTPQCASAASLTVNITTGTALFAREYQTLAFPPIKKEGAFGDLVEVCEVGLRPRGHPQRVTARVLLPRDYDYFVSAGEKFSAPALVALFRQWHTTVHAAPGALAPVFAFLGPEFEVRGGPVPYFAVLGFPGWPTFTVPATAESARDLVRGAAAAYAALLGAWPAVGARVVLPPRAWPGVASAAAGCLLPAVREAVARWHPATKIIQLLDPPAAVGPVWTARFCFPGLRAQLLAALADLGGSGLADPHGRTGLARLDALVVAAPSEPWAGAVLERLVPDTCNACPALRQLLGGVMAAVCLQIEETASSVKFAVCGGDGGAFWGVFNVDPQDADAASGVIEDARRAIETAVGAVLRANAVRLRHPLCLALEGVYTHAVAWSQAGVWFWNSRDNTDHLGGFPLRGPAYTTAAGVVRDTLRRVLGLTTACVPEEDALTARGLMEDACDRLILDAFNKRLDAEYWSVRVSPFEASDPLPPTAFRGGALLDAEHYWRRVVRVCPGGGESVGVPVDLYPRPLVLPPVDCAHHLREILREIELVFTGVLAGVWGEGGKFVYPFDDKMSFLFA
T1 sequence (P10236 whole entry): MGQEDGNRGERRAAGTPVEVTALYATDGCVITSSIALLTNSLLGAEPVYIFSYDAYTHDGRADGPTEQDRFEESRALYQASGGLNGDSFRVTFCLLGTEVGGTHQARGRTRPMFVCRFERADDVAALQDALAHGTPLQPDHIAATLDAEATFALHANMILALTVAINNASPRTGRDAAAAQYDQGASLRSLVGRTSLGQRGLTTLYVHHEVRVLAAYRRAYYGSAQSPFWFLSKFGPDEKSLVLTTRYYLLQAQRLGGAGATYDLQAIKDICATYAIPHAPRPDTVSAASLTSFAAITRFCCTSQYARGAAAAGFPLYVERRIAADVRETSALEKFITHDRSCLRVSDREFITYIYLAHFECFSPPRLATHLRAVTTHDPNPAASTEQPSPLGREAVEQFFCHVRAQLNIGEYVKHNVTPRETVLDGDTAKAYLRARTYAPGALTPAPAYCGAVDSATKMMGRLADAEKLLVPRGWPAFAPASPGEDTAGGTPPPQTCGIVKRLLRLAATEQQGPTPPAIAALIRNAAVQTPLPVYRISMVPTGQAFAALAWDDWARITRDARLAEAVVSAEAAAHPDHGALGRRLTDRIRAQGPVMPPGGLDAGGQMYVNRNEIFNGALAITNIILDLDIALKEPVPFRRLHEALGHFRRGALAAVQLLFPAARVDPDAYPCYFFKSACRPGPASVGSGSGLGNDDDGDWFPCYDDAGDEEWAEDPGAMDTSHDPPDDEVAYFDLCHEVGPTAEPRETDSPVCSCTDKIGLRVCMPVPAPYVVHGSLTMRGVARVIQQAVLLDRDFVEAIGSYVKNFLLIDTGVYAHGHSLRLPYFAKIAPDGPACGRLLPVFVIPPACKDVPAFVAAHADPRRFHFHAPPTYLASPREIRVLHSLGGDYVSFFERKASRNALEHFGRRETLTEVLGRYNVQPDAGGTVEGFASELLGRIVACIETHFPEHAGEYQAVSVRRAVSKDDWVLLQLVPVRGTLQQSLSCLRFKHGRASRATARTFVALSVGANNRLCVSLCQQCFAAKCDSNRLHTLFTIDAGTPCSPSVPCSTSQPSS
T1 sequence (P10189 whole entry): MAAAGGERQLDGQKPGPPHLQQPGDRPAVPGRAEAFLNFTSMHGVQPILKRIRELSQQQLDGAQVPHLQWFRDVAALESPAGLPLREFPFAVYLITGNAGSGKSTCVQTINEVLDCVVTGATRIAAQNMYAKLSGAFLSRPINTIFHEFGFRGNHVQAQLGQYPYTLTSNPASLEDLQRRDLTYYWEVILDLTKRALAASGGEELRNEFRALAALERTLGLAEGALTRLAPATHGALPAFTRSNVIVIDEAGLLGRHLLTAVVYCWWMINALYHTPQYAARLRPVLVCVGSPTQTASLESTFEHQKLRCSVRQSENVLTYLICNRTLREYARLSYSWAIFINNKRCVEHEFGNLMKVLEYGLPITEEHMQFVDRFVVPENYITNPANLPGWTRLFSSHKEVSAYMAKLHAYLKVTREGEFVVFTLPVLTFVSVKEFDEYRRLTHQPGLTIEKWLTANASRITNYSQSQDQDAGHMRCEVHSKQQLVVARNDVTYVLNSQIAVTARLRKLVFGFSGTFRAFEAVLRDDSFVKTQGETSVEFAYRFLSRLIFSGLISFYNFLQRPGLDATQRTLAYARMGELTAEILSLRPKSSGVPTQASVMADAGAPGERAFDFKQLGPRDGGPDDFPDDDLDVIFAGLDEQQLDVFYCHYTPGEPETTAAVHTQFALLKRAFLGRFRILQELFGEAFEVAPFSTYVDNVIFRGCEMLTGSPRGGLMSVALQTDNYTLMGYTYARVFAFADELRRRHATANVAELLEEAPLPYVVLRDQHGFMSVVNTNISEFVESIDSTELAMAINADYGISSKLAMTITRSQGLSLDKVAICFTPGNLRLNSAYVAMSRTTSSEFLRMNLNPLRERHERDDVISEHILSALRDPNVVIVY

Turning to `Nc1nc(-c2ccc(NC(=O)CNCCN3CCOCC3)cc2)cs1` [Example 14], on HSV-1 helicase-primase (Group 1 Table 1 entries), half-maximal inhibition (IC50) was put at 7700 nM. The EC50 (usually the midpoint of the concentration-response curve) in the assay with HSV-1 strain F or KOS (setting [1]) was 3200 nM; in the assay on HCMV (strain AD169) (setting [2]), 67000 nM.

With `CN1CCC(C(=O)N(CC(=O)Nc2ccc(-c3csc(N)n3)cc2)Cc2ccccc2)CC1` [Example 123], the IC50 (usually the concentration that gives 50% inhibition) on HSV-1 helicase-primase (Group 1 Table 1 entries) is over 50000 nM. Besides, in the assay on HCMV (strain AD169) (setting [2]), the EC50 turned out to be 41000 nM.

In turn, `C[C@@H](C(=O)Nc1ccc(-c2csc(N)n2)cc1)N(Cc1ccccc1)C(=O)C1CCCCC1` [Example 14] came in with an IC50 on HSV-1 helicase-primase (Group 1 Table 5 entries) of 110 nM. For the same molecule, the EC50 was 9 nM in the assay with HSV-1 strain F or KOS (setting [3]) and 10000 nM with HCMV (strain AD169) (setting [4]).

Take `C[C@@H](NCc1ccccc1)C(=O)Nc1ccc(-c2csc(N)n2)cc1` [Example 13]: 2000 nM corresponded to half-maximal inhibition on HSV-1 helicase-primase (Group 1 Table 5 entries) (IC50). Further, the EC50 in the assay with HSV-1 strain F or KOS (setting [3]) came to 2000 nM; in the assay with HCMV (strain AD169) (setting [4]) it was 14000 nM.

On to `CN(C)c1cccc2c(S(=O)(=O)N(CC(=O)Nc3ccc(-c4csc(N)n4)cc3)Cc3ccccc3)cccc12` [Example 98], for which, on HSV-1 helicase-primase (Group 1 Table 1 entries), inhibition was half-maximal at 500 nM (IC50). Moreover, the concentration for a half-maximal effect (EC50) is 2100 nM in the assay with HSV-1 strain F or KOS (setting [1]) and over 2000 nM in the assay on HCMV (strain AD169) (setting [2]).

On HSV-1 helicase-primase (Group 1 Table 3 entries), `CN(C)c1nc(-c2ccc(NC(=O)CN(Cc3ccccc3)C(=O)OC(C)(C)C)cc2)cs1` [Example 16] showed an IC50 of over 50000 nM. The figures for the EC50 in the assay on HSV-1 strain F or KOS (setting [5]) and with HCMV (strain AD169) (setting [6]) were 9 nM and 4800 nM, respectively.

Molecule `CNc1nc(-c2ccc(NC(=O)CN(CC3CCCCC3)C(=O)c3cccnc3)cc2)cs1` [Example 9] came in with an IC50 at HSV-1 helicase-primase (Group 1 Table 3 entries) of 10000 nM. Moreover, the figures for the concentration giving a half-maximal response (EC50) in the assay with HSV-1 strain F or KOS (setting [5]) and with HCMV (strain AD169) (setting [6]) were 1300 nM and 5000 nM, respectively.

Turning to `CN(C)c1nc(-c2ccc(NC(=O)CNCC3CCCCC3)cc2)cs1` [Example 13], the IC50 on HSV-1 helicase-primase (Group 1 Table 3 entries) was over 50000 nM. The EC50 with HSV-1 strain F or KOS (setting [5]) is over 4000 nM; in the assay with HCMV (strain AD169) (setting [6]), 36000 nM.

Take `CC1(C(=O)N(CC(=O)Nc2ccc(-c3csc(N)n3)cc2)Cc2ccccc2)CCCCC1` [Example 35]: half-maximal inhibition against HSV-1 helicase-primase (Group 1 Table 1 entries) (IC50) required 35 nM. Moreover, the results for the EC50 in the assay with HSV-1 strain F or KOS (setting [1]) and with HCMV (strain AD169) (setting [2]) were 6 nM and 8100 nM, respectively.

`CC(C)(C)OC(=O)N(CC(=O)Nc1ccc(-c2csc(N)n2)cc1)Cc1ccc(Cl)cc1` [Example 91] had a 50% inhibitory concentration (IC50) against HSV-1 helicase-primase (Group 1 Table 1 entries) of 70 nM. Also, the values for the EC50 with HSV-1 strain F or KOS (setting [1]) and in the assay on HCMV (strain AD169) (setting [2]) were 25 nM and 1600 nM, respectively.

`Cc1nc(-c2ccc(NC(=O)CN(Cc3ccccc3)C(=O)C3CCCCC3)cc2)cs1` [Example 4] had a concentration for half-maximal inhibition (IC50) at HSV-1 helicase-primase (Group 1 Table 3 entries) of 190 nM. In addition, the EC50 in the assay on HSV-1 strain F or KOS (setting [5]) turned out to be 120 nM; with HCMV (strain AD169) (setting [6]), 12000 nM.

Regarding `C[C@H](C(=O)Nc1ccc(-c2csc(N)n2)cc1)N(Cc1ccccc1)C(=O)C1CCCCC1` [Example 15], the IC50 against HSV-1 helicase-primase (Group 1 Table 5 entries) came to 41 nM. The EC50 is 6 nM in the assay with HSV-1 strain F or KOS (setting [3]) and 3200 nM in the assay with HCMV (strain AD169) (setting [4]).

Take `COc1ccc(CN(CC(=O)Nc2ccc(-c3csc(N)n3)cc2)C(=O)C2CCCCC2)cc1` [Example 46]: the IC50 against HSV-1 helicase-primase (Group 1 Table 1 entries) worked out at 75 nM. Moreover, the EC50 came out at 94 nM with HSV-1 strain F or KOS (setting [1]) and 8000 nM in the assay with HCMV (strain AD169) (setting [2]).

The molecule `Nc1nc(-c2ccc(NC(=O)CNCC3CCCCC3)cc2)cs1` [Example 8] came in with an IC50 against HSV-1 helicase-primase (Group 1 Table 1 entries) of 2900 nM. Also, the EC50 in the assay with HSV-1 strain F or KOS (setting [1]) came to 8000 nM; in the assay with HCMV (strain AD169) (setting [2]) it was 3600 nM.

Regarding `C[C@@H](C1CCCCC1)N(CC(=O)Nc1ccc(-c2csc(N)n2)cc1)C(=O)OC(C)(C)C` [Example 108], the EC50 was 390 nM in the assay on HSV-1 strain F or KOS (setting [1]) and 6800 nM in the assay on HCMV (strain AD169) (setting [2]).

As to `C[C@@H](c1ccccc1)N(C)CCC(=O)Nc1ccc(-c2csc(N)n2)cc1` [Example 28], the 50% effective concentration (EC50) in the assay on HSV-1 strain F or KOS (Human alphaherpesvirus 1, BHK-21, Group 1 Table 2 entries) stood at 2000 nM; in the assay with HCMV (strain AD169) (Human betaherpesvirus 5, AD169, Hs68, Group 1 Table 2 entries), 18000 nM.

For `Nc1nc(-c2ccc(NC(=O)[C@@H](Cc3ccccc3)NC(=O)C3CCCCC3)cc2)cs1` [Example 2], the EC50 in the assay with HSV-1 strain F or KOS (setting [3]) is 170 nM; in the assay on HCMV (strain AD169) (setting [4]) it was 52000 nM.
